In patent publication US7947305B2, “Fat-soluble drug composition” (Riken Vitamin Co., Ltd., priority 2005, dated 2011):

experiment: HLB value of emulsifiers; format: physicochemical; details: emulsifier raw material
Method: The HLB value (Hydrophile Lipophile Balance) refers to a value showing hydrophilicity of a surfactant. This is an index representing the balance of the lipophilicity and hydrophilicity of the object compound, which is determined as a relative value to an HLB value for a hypothetical compound, generally an ethylene oxide adduct-type nonionic surfactant having an infinite long hydrophilic group attached to a lipophilic group and having the maximum hydrophilicity, which is set to 20, and to an HLB value for a lipophilic compound having no hydrophilic group, which is set to 0.

Compound	HLB
diglycerol monooleate	7.4
CCCCCCCC/C=C\CCCCCCCC(=O)OCC(O)CO (stereo not drawn) [Glycerol oleate, glycerol monooleate]	4.3
decaglycerol laurate [Decaglycerol monolaurate]	15.0
